In assay [1] the target is T1, PIN1 (Homo sapiens, UniProt Q13526).
T1 construct: polyhistidine (N); made in house; host or cells: Escherichia coli BL21 (DE3)
Briefly: [15N,1H]-HSQC titration series with increasing ligand concentration, PIN1. It is filed as binding. The settings on record: values with * could not be fitted to a maximum, Kd most likely higher. As to the method:
(B) Chemical shift perturbation titration studies of the compounds with ^15N-labeled PIN1 measured by [^15N,^1H]-HSQC experiments and shown for residues T154 and A124 in the presence of increasing ligand concentrations. […]
For the control binding experiments using ligand-induced chemical shift perturbation analysis, standard [^15N, ^1H]-HSQC spectra were measured. The detailed conditions for the 2D experiments acquired at 600 MHz ^1H NMR frequency were the 100 μM ^15N-labeled PDZ2 domain in the absence and presence of equimolar peptide in PDZ2 buffer and at a temperature of 298 K and 50 μM ^15N-labeled PIN1 in the absence and presence of 200 μM ligands in PIN1 buffer and at a temperature of 298 K, respectively. […] The data was zero–filled to 2048 points in the direct proton dimension and to 256 points in the ^15N–dimension. Processing was done with a shifted cosine window function for both dimensions. […] The spinlock times were set at 10 and 400 ms. The STD experiments were measured at 298 K with 16,384 (tmax (^1H) = 974 ms) complex points and 512 scans per increment.
Figure S7: Chemical shift perturbation-based Kd determination of individual compounds binding to PIN1. The chemical shift displacement of the 15N-1H moieties of A124 (black) and T154 (red) PIN1 (y-axis) in dependence on the compound […]
The fits to the titrations are highlighted by a line and the Kd extracted is given in mM. Compound 13 titration series ranges 0, 80, 100, 200, 300, 600, 1000, […]
concentration; compounds 3, 10, and 11 range 0, 200, 500, 1000, 2000, 3000 µM concentration and all the samples contained 80 µM of PIN1 protein and were measured in PIN1 buffer at 298K. […]

The target of assay [2] is T1, PIN1. Briefly: automated flow-through photo-CIDNP 1D 1H NMR screening against PIN1. The format is binding. The settings on record: flow cell, 50 μM compound, 20 μM PIN1, 1.5 s irradiation. The source says:
While several other hyperpolarization methods yield higher SNE and have been established for ligand binding detection, their implementation into a highly automated system remains challenging.[43],[44] Photo-CIDNP hyperpolarization presents the advantage of being generated in situ, at room temperature, in solution, simply by shining light on the sample. To illustrate the agility of the photo-CIDNP ligand screening approach, we designed a flow-through setup compatible with a cryoprobe (Figure 7C). The setup consists of a pump, an autosampler, a valve, and a 3D printed flow cell (Figure 7B,C), which comprises an optic fiber for light irradiation coming from a 1.6 W diode laser emitting at 450 nm from Thorlabs. […] (iv) While the flow is stopped, a photo-CIDNP ^1H 1D NMR spectrum is recorded, as described above. […]
Figure 7 Automated screening of PIN1 with Nmhare1.0 library using photo-CIDNP 1D ^1H NMR. […] The photo-CIDNP NMR experiment is then recorded with the pulse program triggering light irradiation, and subsequently performing the NMR experiment acquisition, the NMR experiment can comprehend different numbers of transients (NS) and indirect time dimension points (TD) that will increase the measurement time accordingly; finally, the sample is washed by restoring the flow in the fluidic connection. […]

As a reminder, the Kd is a measure of binding affinity in units of concentration.

Where two headings read alike, the source gives them in different places.

T1 sequence (Q13526 whole entry): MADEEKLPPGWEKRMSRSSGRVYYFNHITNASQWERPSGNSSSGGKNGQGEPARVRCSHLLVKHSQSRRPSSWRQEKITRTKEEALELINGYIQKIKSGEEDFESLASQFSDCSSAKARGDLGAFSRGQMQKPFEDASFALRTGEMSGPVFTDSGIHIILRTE

Regarding `Cc1cccc(-c2nc(C)c(C(=O)O)[nH]2)c1` [Compound 13, reference compound], the Kd at PIN1 [1] (fit of CSP build-up of residue A124, read-out: Kd A124) was determined as 4.5 mM; on PIN1 [1] (fit of CSP build-up of residue T154, read-out: Kd T154), 1.7 mM. The “photo-CIDNP signal in presence vs absence of PIN1” value on PIN1 [2] is “signal reduction”.

(Values after publication PMC10251509, “Ultrafast Fragment Screening Using Photo-Hyperpolarized (CIDNP) NMR” (Journal of the American Chemical Society, 2023).)
